Test results as given in patent US20220313697A1, “NEK6 Inhibition to Treat ALS and FTD” (VIB VZW, priority 2021, published 2022).
Ends that are not written are not given here.

Tests used:
[1] = tested on: hiPSC-derived cortical neurons treated with PR20; assay: Axonal transport analysis (mitochondrial transport, MitoTracker-Red) in PR20-treated neurons; format: cell-based, human; conditions: for axonal transport defects observed upon PR-treatment: 200 nm I-3 or 300 nm I-18, added 3 days before and together with PR20; for number of moving mitochondria / ratio of moving mitochondria to total amount of mitochondria: 200 nm I-3 or 300 nm I-18, vs PR-treatment alone
Experimental: Axonal transport defects are an early event in the pathogenesis of ALS (Guo et al 2019 Semin Cell Dev Biol 99:133-150). To assess whether axonal transport defects also occur in cortical neurons from healthy donor hiPSC-cortical neurons treated with PR20 and from C9orf72 patient-derived cortical neurons, mitochondrial transport studies were performed.
To test whether chemical inhibition of NEK6 could be used as a treatment of DPR toxicity as well, the recently described NEK6 inhibitor ZINC05007751 was tested. iCas9-hiPSC derived cortical neurons (cultured for 70-80 days) were treated with 1.75 μM to 14 μM of the inhibitor at dayl and at day 3. The cells were subjected to a PR20 treatment (1.5 μM) at day 3 together with the compound. Axonal transport measurements were performed at day 4.
The same experiments are performed with the NEK6 inhibitors ZINC05007751 and with the NEK6 inhibitors described in WO2019126696A1.
DIV79-DIV84 iPSC-derived cortical neurons were loaded with MitoTracker-Red (50 nM, Invitrogen), washed and left to equilibrate (20 min) in NMM, before transferring them to a HEPES buffered salt solution (pH 7.4, 150 mM NaCl, 5 mM KCl, 1 mM MgCl2, 2 mM CaCl2, 10 mM glucose, 10 mM HEPES). Measurements were performed on an inverted Zeiss Axiovert 200M microscope (Carl Zeiss) with a 40× water immersion lens. Neurons were selected under differential interference optics (DIC) based on typical morphology consisting of a soma and long-extended neurites. MitoTracker-RED was excited at 580 nm, using a TILL Poly V light source (TILL Photonics) and image sequences were recorded (200 images at 1 Hz) onto a cooled CCD camera (PCO Sensicam-QE) using TillVisION (TILL Photonics) software. A heated gravityfed perfusion system was used to keep cells at 36±0.5° C. during the recordings. All image analysis was performed in Igor Pro (Wavemetrics) using custom written routines based on a previously described analysis algorithm (Vanden Berghe 2004 Am. J. Physiol. Gastrointest. Liver Physiol. 286, G671-G682). In brief, kymographs or spatio-temporal maps were constructed for each of the neuronal processes. In these maps, stationary mitochondria appear as vertical lines and moving mitochondria generate tilted lines. Proportions of moving and stationary mitochondria were extracted from the maps by marking and analyzing the properties of each of the mitochondrial trajectories.

[2] = tested on: iCas9-iPSC DIV80 neuronal progeny; format: cell-based; conditions: human
Experimental: Next, the iCas9-iPSC derived DIV79 neurons were treated with PR20 peptides to mimic DPR toxicity (Cheng et al 2019 Neuron 72:1-14; Kramer et al 2018 Nat Genet 50:603-612).
To validate results from the screen, iCas9-NPCs were individually transduced with sgRNAs directed against the top 3 candidate genes, CRKL, SNRK and NEK6, that enhanced survival in the interference screen. A 50-60% reduction in protein levels of CRKL, SNRK and NEK6 was observed after doxycycline treatment (FIG. 5). […] A more pronounced effect could be observed using sgRNAs against NEK6 and SNRK.
Resazurin (R7017, Sigma) was added to the cells in neuron maintenance medium (NMM) at a concentration of 1 μg/ml. Cells were incubated for 1 h in 37° C. with 5% CO2. […] was evaluated using 540 nm excitation and 590 nm emission settings.

[3] = tested on: poly(PR) zebrafish model; assay: poly(PR) zebrafish model of motor axonopathy; format: in vivo
Experimental: Therefore, a morpholino-mediated NEK6 knockdown was performed in a poly(PR) zebrafish model as described in Swinnen et al (2018 Acta Neuropathol doi:10.1007/s00401-017-1796-5). In this model, micro-injection of poly(PR) encoding mRNA results in a motor axonopathy in zebrafish embryos, characterised by reduced axonal lengths and aberrant axonal branching (Swinnen et al 2018 Acta Neuropathol doi:10.1007/s00401-017-1796-5).
Zebrafish work was performed as previously described in Swinnen et al (2018 Acta Neuropathol 135, 427-443). Zebrafish oocytes were injected at one-cell stage with the indicated amounts of the morpholinos. The splice-blocking morpholino against Danio rerio nek6 (transcript ENSDART00000132599.2; morpholino sequence 5′-[…]-3′) and the standard control oligo (morpholino sequence 5′-[…]-3′) were designed and generated by Gene Tools (Philomath, USA). Injected oocytes were incubated at 28° C. After 24 hpf, the embryos were dechorionated by using a forceps. Only morphologically normal embryos were selected for downstream experiments. At 30 hpf, the selected fish were deyolked and subsequently fixed overnight at 4° C. in 4% formaldehyde in lx PBS. Fish were permeabilized with acetone for 1 h at −20° C., blocked with 1% BSA/1% DMSO/PBS for 1 h at room temperature and immune-stained with mouse anti-SV2 primary antibody followed by secondary antibody. For phenotyping, 15 consecutive embryos per condition were analyzed with imaging (Leica DM 3000 LED microscope; DMK 33UX250 USB3.0 monochrome industrial camera, The Imaging Source, Bremen, Germany) and the Lucia software (version 4.60, Laboratory Imaging, Prague, Czech Republic) by a blinded observer. For the axonal length, a standardized method was used; five predefined and consecutive motor axons (i.e. the 8th up to the 12th axon on one side) were measured in all 15 embryos. Data for axonal length were normalized to the control condition. For the abnormal branching, a predefined set of 20 consecutive motor axons (i.e. the 8th up to the 17th axon on both sides) in the same 15 embryos were analyzed visually. […]

[4] = co-injection of poly(PR) mRNA with 0.5 mM morpholino, 30 hpf

For `CCOc1cc(N2CCC(O)CC2)ccc1Nc1ncc2c(n1)n1c(cc3ccccc31)c(=O)n2C` [Compound I-18], the “axonal transport defects observed upon PR-treatment” value [1] was “statistically significantly rescues”, the “number of moving mitochondria” value [1] was “statistically significantly improved” and the “ratio of moving mitochondria to total amount of mitochondria” value [1] was “statistically significantly improved”. The “number of total mitochondria” value ([1]; 300 nm I-18, vs PR-treatment alone) was “statistically significantly increased”.

“PRPRPRPRPRPRPRPRPRPRPRPRPRPRPRPRPRPRPRPR [PR20]” was tested, and the “neuronal progeny died (dose-response, cell viability)” value [2] was 70-80% and the axonal transport ([1]; 1.5 μM PR20, normal donor iPSC-DIV79 cortical neurons) was “significantly decreased”.

With `CC1=C(C#N)C(O)=NC(=O)/C1=C\c1ccc(-c2ccccc2)o1` [ZINC05007751] the “axonal transport defects induced by PR20” value ([1]; 1.75 μM to 14 μM inhibitor at day 1 and day 3, PR20 1.5 μM at day 3, measured at day 4) was “overruled the axonal transport defects”.

In the case of `COc1cc(N2CCN(C)CC2)ccc1Nc1ncc2c(n1)n1c(cc3ccccc31)c(=O)n2C` [Compound I-3], the “axonal transport defects observed upon PR-treatment” value [1] is reported as “statistically significantly rescues”, the “number of moving mitochondria” value [1] is reported as “statistically significantly improved” and the “ratio of moving mitochondria to total amount of mitochondria” value [1] is reported as “statistically significantly improved”.

For “5′-ATGTTAGAAAGTGTACCTCGATGCA-3′ (all phosphorodiamidate morpholino (PMO)) [Nek6 morpholino]”, the “poly(PR)-induced axonal phenotype” value ([3]; co-injection of poly(PR) mRNA with 0.5 mM morpholino in oocytes) was “significantly prevented”, the aberrant axonal branching [3, 4] was “less aberrantly branched axons” and the axonal length [3, 4] was “partial normalization”.
